Results: patent US7691579B2, “Methods and compositions for producing an enhanced immune response to a human papillomavirus immunogen” (priority 2005, dated 2010)
“Also recorded” adds a separate entry of the source.

B1: IL-2: murine IL-2 (Preprotech) (protein, UniProt P04351 21-169, looked up)
Interleukin-2: APTSSSTSSSTAEAQQQQQQQQQQQQHLEQLLMDLQELLSRMENYRNLKLPRMLTFKFYLPKQATELKDLQCLEDELGPLRHVLDLTQSKSFQLEDAENFISNIRVTVVKLKGSDNTFECQFDDESATVVDFLRRWIAFCQSIISTSPQ

Legend:
HLA-A2 = biological target: T1, HLA-A2 (Homo sapiens, UniProt P04439, D140Y/D185E/D98H/E176V/E277Q/G131W/G231S/I119V/I121R/I166T/I218V/L300P/L318F/N151K/N90K/P208A/P217A/Q86G/Q94H/R138H/R169H/T345S); assay: T2 binding assay (HLA-A2 stabilisation on T2 cells, fluorescence index)
T1 construct: The T2 cell expresses HLA-A2 and is TAP1 and TAP2 deficient; endogenous in cells; host or cells: T2 cells
Procedure: The sequences are derived from HPV 16 E2. T2 cells were loaded with various concentrations of peptides. Level of surface class I molecules were assessed by flow cytometric analysis using mouse monoclonal antibodies specific for HLA-A2. Fluorescence index=Fluorescence after peptide stimulation/Fluorescence without peptide −1.
Since little was known about the MHC class I epitopes for E2, HLA-A2 binding sequences derived from HPV 16 E2 were investigated. […] To test the binding affinity of these peptides to HLA-A2, a T2 binding assay was performed. The T2 cell expresses HLA-A2 and is TAP1 and TAP2 deficient.

[1] = test system: C1R.ADD target cells pulsed with E2 peptides; assay: IFN-gamma ELISPOT assay in immunized AAD mice, response to E2; assay type: in vivo, HLA-A2 transgenic mice (AAD); details: for T cell response to E2 (IFN-gamma ELISPOT), in words / IFN-gamma producing cells (ELISPOT): AAD mice; for T cell response to E2 (IFN-gamma ELISPOT), in words: protocol as labelled; for IFN-gamma producing cells (ELISPOT): E2 peptides + GM-CSF + anti-CD40 in IFA, boosted with E2 peptides in IFA
Excerpt: AAD Mice were immunized with three E2 peptides. […] A target cell, C1R.ADD, was pulsed with peptides. C1R.ADD alone was used as negative control, and E7 86-93 was used as a specificity control. Mice are immunized with the indicated 1st immunization and are then given the indicated 2nd immunization (booster immunization) four weeks later. The G1, G2, and G3 immunization protocols employed are as follows: G1 (1st immunization: IFA+GM-CSF+anti-CD40 antibody+E2 peptides; 2nd immunization: IFA+E2 peptides); G2 (1st immunization: IFA+GM-CSF+anti-CD40 antibody+E2 peptides; 2 immunization: none); G3 (1st immunization: none; 2nd immunization: IFA+E2 peptides).
AAD Mice were immunized with different combinations of VLP-E7E2 and E2 peptides with/without Gm-CSF and αCD40. Target cells were pulsed with E2 peptide. Immunization with E7 11-20 peptides is used as a control. The G1 and G2 immunization protocols employed are as follows: G1 (1st immunization: IFA+GM-CSF+anti-CD40 antibody+E2 69-77 peptides); G2 (1st immunization: L1-VLP-L2-E2-E7+GM-CSF+anti-CD40 antibody).
Target cells are C1R.ADD cells pulsed with the indicated peptides.
(§1) Immunization: Mice were immunized subcutaneously at the base of the tail with the chimeric VLPs. GM-CSF (Preprotech, Rocky Hill, N.J.) was given the day before and the same day as the VLP injection. Anti-CD40 (SouthernBiotech, Birmingham Ala.) was given with the VLP. Mice were also immunized with 50 nmoles of peptide in incomplete Freund's adjuvant (IFA) with or without GM-CSF (5 μg/mouse) and anti-CD40 (10 μg/mouse). All vaccines were prepared immediately prior to injection. Each group had 4 mice, and the pooled spleen cells from four mice were used for assays. 10 μg of VLP-E7E2 was given to a mouse. The MW of the VLP-E7E2 is about 5280 Kd (72×L1@55 Kd=3960 Kd, and 12×L2E7E2@110 kd=1320 Kd). The number of moles of VLP-E7E2 in 10 μg of total protein is about […].
ELISPOT assay: The number of IFN-gamma-producing cells is also determined by ELISPOT assay. The anti-IFN-gamma antibody, 5 μg/ml, in PBS are coated on Millipore's multiscreen-HA plate (Millipore, Marlborough, Mass.) overnight at 4° C. The plate is blocked by incubation in RPMI containing 10% FCS for 3 hours at room temperature, and then the plate is washed two or three times with PBS. Target cells, EL-4 or C1R.ADD, are incubated with or without peptides for 2 hour at room temperature, washed twice. Then, they were placed at 5,000 per well. The effector cells were from 40,000 to 50,000 per well. After a 20 hour incubation period at 37° C., the plate is washed six times with PBS containing 0.05% Tween 20. The biotin-labeled anti-IFN-gamma, at 2 μg/ml, is added to the plate. After a 3 hour incubation period at room temperature, the plate is washed six times, and developed using an ABC kit from Vector Lab (Burlingame, Calif.). The spots are counted using Immunspot™ CTL (Cleveland Ohio). Data are expressed as an average from triplicate wells.
Induction of CD8+ T Cell Response to E2 Peptides. […] One group of mice was boosted with E2 peptides in IFA emulsion (IFA-E2) two weeks later. An IFN-gamma ELISPOT assay was performed using spleen cells collected either two or four weeks after vaccination as shown in FIG. 14. The immunization protocol is shown in Table 4 below (50 nmoles of each immunogen was employed; “E2s” refers to E2 peptides).
Enhancing CTL Response to E2. […] When AAD mice were immunized with either 50 nmoles E2 69-77 with immune modulators in IFA or 24 pmoles of VLP-E7E2 with immune-modulators in aqueous solution, a marginal CD8+ T cell response to E2 was detected by ELISPOT assay using fresh isolated spleen cells from both groups of mice (FIG. 15, Panel A and Panel B). […]

[2] = test system: wild type (SEQ ID NO: 1) and modified (SEQ ID NO: 9) E2 peptides; assay: Elispot assay of mice immunized with wild type or modified E2 138-147 peptide; assay type: in vivo; details: mice immunized with the labelled peptide
[3] = test system: C1R.AAD target cells pulsed with E7 11-20 and E7 86-93 peptides; assay: CTL assay (51Cr release) with spleen cells of immunized AAD mice, response to E7; assay type: in vivo, HLA-A2 transgenic mice (AAD); details: co-injected in aqueous solution
Procedure: as §1
(§2) CTL assay: Two (or three) weeks after immunization, spleens were aseptically removed and single cell suspensions are prepared. […] Cytolytic activity of cells is measured by a 4-h assay with ^51Cr-labeled EL-4 or C1R.AAD target cells in triplicate wells. Percent ^51Cr release is calculated as 100×(experimental release-spontaneous release)/(maximum release-spontaneous release). Maximum release is determined from supernatants of cells that are lysed by addition of […]. Spontaneous release is determined from target cells culture in medium. Data are expressed as an average from triplicate wells. […]

[4] = test system: EL-4 target cells pulsed with E7 49-57 peptides; assay: CTL assay (51Cr release) with spleen cells of immunized C57BL/6 mice; assay type: in vivo; details: given in aqueous solution with VLP-E7E2
Procedure: as §1, §2

Row | Molecule | binding to HLA-A2, in words (HLA-A2) | T cell response to E2 (IFN-gamma ELISPOT), in words [1] | concentration at FI 0.5 (HLA-A2) [µM] | IFN-gamma producing cells (ELISPOT) [1] [spots/million] | other results
1 | TLQDVSLEV [E2 93-101, HPV 16 E2 peptide] | did not bind; also recorded: no binding activity | did not elicit a T cell response | – | – | –
2 | YLAEEASVTV [E2 138-147 modified] | higher HLA.A2 binding affinity | – | – | – | immune response to wild type and modified E2 peptides (Elispot) ([2]; listed as modified peptide (SEQ ID NO: 9)): elicit an immune response to both; immune response to wild type and modified E2 peptides (Elispot) ([2]; listed as new peptide (SEQ ID NO: 9)): more immunogenic
3 | ALQAIELQL [E2 69-77, HPV 16 E2 peptide] | high binding affinity; also recorded: displayed binding ability | induce a CD8+ T cell response; also recorded: immunogenic | 50 | 32 | –
4 | YICEEASVTV [E2 138-147] | high binding affinity; also recorded: displayed binding ability | induce a CD8+ T cell response; also recorded: immunogenic | 50 | 53 | immune response to wild type and modified E2 peptides (Elispot) [2]: failed to elicit an immune response; IFN-gamma production (ELISPOT), response to E2 ([1]; boosted with E2 peptides in IFA four weeks after the initial immunization): more immunogenic
5 | RLNVCQDKIL [E2 7-16, HPV 16 E2 peptide] | no binding activity | – | – | – | –
6 | B1 | – | – | – | – | effect of co-injection on the VLP-E7E2-induced CTL response to E7 [3]: no effect; effect on the VLP-E7E2 induced CTL response [4]: no effect
